Measured values reported in patent publication US3937829A, “Medicinal preparation for treatment of various forms of leprosy” (priority 1973, dated 1976).

Tests used:
[1] = clinico-biochemical data and blood findings in leprosy patients; format: in vivo, human
[2] = human, in vivo
[3] = toxico-biological action during a three-month period (biochemical and histomorphological analyses); format: in vivo, white mice, rats and cats; settings: compared to control animals
Description: Toxico-biological action of the preparation was studied in animals of the three species, viz., white mice, rats and cats. As a result, it was established that introduction of the medicinal preparation into an animal's organism during a three-month period provokes no changes, according to the data of biochemical and histomorphological analyses, in the internal organs, endocrine glands, brain, nerves and blood as compared to the control animals.

[4] = test system: lymphocytes of the human peripheral blood; assay: influence upon the synthesis of RNA in lymphocytes; format: cell-based
Description: This may be considered as an evidence of possible differentiation of the lymphocytes or of potentiation of their specific function under the effect of the preparation.

storage stability = format: physicochemical
Description: The medicinal preparation according to the invention for treatment of various forms of leprosy is stable when under long-term storage.

[5] = solubility and reaction of aqueous solutions; format: physicochemical
Experimental: (§1) The preparation is soluble in diluted alkalis, dimethylformamide and dimethysulfoxide. Aqueous solutions of the preparation give an acid reaction. M.p. of the preparation lies at 233°-234°C, at temperatures above 235°C it decomposes; the preparation withstands heating at 150°C during 2 hours, at 100°C during 5 hours without decomposition.

[6] = thermal stability (heating); format: physicochemical
Experimental: as §1

lymphocytes = assay: intracellular metabolism, RNA quantity in a cell and phagocytosis; format: cell-based, human
[7] = concentration of sulfonic preparations in the blood during treatment; format: in vivo
Experimental: When determining the concentration of sulfonic preparations in the blood during treatment with diaminodiphenylsulfone, sulphetrone and the inventive preparations, it was observed that the concentration of the inventive preparation is twelve times as high as that of diaminodiphenylsulfone, both being administered as a powder at a dose of 0.1 g s.i.d. Futhermore, Injection of 2 ml of a 10 percent solution of the inventive preparation gave a concentration in the blood four times that which resulted from the introduction of 1 ml of 15-10 percent solution of sulphetrone.

[8] = toxicity with respect to warm-blooded animals
Mycobacterium leprae = assay: clinical experiments on 99 leprosy patients, therapeutic effect; format: in vivo, human

In the case of Cc1[nH]c(=O)[nH]c(=O)c1S(=O)(=O)Nc1ccc(S(=O)(=O)c2ccc(NS(=O)(=O)c3c(C)[nH]c(=O)[nH]c3=O)cc2)cc1 [preparation, p,-p-bis(2,4-dioxy-6-methylpyrimidinyl-5-sulfonamido)diphenylsulfone], the anabolic effect ([1]; clinico-biochemical data) was “less manifested”, the antipyretic effect ([1]; clinico-biochemical data) was “sharply pronounced” and the amount of erythrocytes ([1]; in the course of treatment) was “increased amount of erythrocytes”. For the same compound, the percentage of hemoglobin ([1]; in the course of treatment) was “higher percentage of hemoglobin”, the protein metabolism ([1]; in the course of treatment) was “normalized protein metabolism” and the side effects [2] was “none of the patients was found to suffer from any side effect”. The “changes in internal organs, endocrine glands, brain, nerves and blood” value [3] was “no changes”, the “toxicity and effect on protective power, as concluded from RNA synthesis” value ([4]; increased immune response) was “non-toxic and acts as a stimulant of the protective power of the organisms” and the “synthesis of RNA in lymphocytes” value ([4]; lymphocytes of the human peripheral blood) was “promotes the synthesis of RNA”. The “retention of properties on storage” value (storage stability; darkness, 18°-25°C, 5 years) was “retain the appearance, melting point, IR-spectrum data, solubility and pH value of an aqueous solution”, the storage stability (storage stability; long-term storage) was “stable” and the “solubility in aqueous novocain solution” value ([5]; 0.1-1-percent aqueous novocain solution) was “sparingly soluble”. The “reaction of aqueous solutions” value ([5]; aqueous solutions) was “acid reaction”, the “solubility in diluted alkalis” value ([5]; diluted alkalis) was “soluble” and the solubility in dimethylformamide ([5]; dimethylformamide) was “soluble”. The solubility in dimethysulfoxide ([5]; dimethysulfoxide) was “soluble”, the “solubility in ethyl alcohol” value ([5]; ethyl alcohol) was “insoluble” and the “solubility in physiological saline” value ([5]; physiological saline) was “sparingly soluble”. For the same compound, the solubility in water ([5]; water) was “sparingly soluble”, the solubility ([5]; water, solutions, read-out: concentration of the active principle above which the substance precipitates) was greater than 120 mg/mL and the decomposition temperature [6] was “above 235 °C”. The “withstands heating without decomposition” value ([6]; 100°C) was 5 h, the “withstands heating without decomposition” value ([6]; 150°C) was 2 h and the intracellular metabolism (lymphocytes) was “promotes the processes of intracellular metabolism”. The “quantity of RNA in a cell” value (lymphocytes) was “enhances the quantity of RNA in a cell”, the “differentiation of lymphocytes and phagocytosis” value (lymphocytes; lepromatous form of leprosy) was “easier differentiation of the lymphocytes into phagocytic forms and to the completion of phagocytosis” and the “concentration in the blood relative to sulphetrone” value ([7]; 2 ml of 10 percent solution injected vs 1 ml of 15-10 percent solution of sulphetrone) was “four”. For the same compound, the “concentration in blood relative to diaminodiphenylsulfone” value ([7]; both as a powder, 0.1 g s.i.d.) was “twelve”, the LD50 ([8]; in vivo) was 2600 mg/kg and the “toxicity relative to diaminodiphenylsulfone” value ([8]; white mice, rats, cats, vs diaminodiphenylsulfone) was “one-fifth”. The “recurrence of the disease” value (Mycobacterium leprae; 36 patients dismissed for ambulant therapy, following four years) was “None of the 36 patients”, the “therapeutic effect in patients resistant to sulfonic antileprotic preparations” value (Mycobacterium leprae; all patients resistant to sulfonic antileprotic preparations) was “good therapeutic effect” and the “transformation of the lepromatous form into the tuberculoid form” value (Mycobacterium leprae; histological examinations during the course of treatment) was 7 patients. For the same compound, the “start of the regress of the disease” value (Mycobacterium leprae; human, in vivo) was 3-6 weeks, the “leprous reactions, neurites, inflammatory processes of the mucous membranes” value (Mycobacterium leprae; in the course of treatment) was “disappeared” and the “character of the regress of the disease” value (Mycobacterium leprae; infiltrates, lepromas, causative agent, fibrosis) was “resolution of infiltrates and lepromas, appearance of a great amount of granular forms of the causative agent and bacterial decomposition, as well as occurrence of a sharply marked fibrosis”. The “effect in patients resistant to sulfonic or other antileprotic therapy” value (Mycobacterium leprae; patients resistant to sulfonic or some other antileprotic therapy) was “effective”.
